The target of experiment [1] is T1, SMARCA2-HiBiT HeLa cells (protein which is expressed from the SMARCA2 gene) (Homo sapiens, UniProt P51531).
T1 construct: protein which is expressed from the SMARCA2 and SMARCA4 genes; host or cells: HeLa (SMARCA2-HiBiT engineered line)
Put plainly: SMARCA2 degradation assay (HiBiT-fusion HeLa cell line, 24 h, luminescence). It counts as cell-based. In short, it runs like this:
(§1)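 HiBiT-fusion HeLa lines, 8,000 cells/well, overnight attachment; cpd 10-pt series (typically 10 μM–300 pM), 24 h, 37° C. Lysis with LgBiT + HiBiT substrate, 10 min shaking at RT, luminescence read. DC50 from dose-response fit; % degradation also scored at 1 μM.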
(HiBiT is a short tag that completes a luciferase, so light tracks the accessible tagged protein.)

Experiment [2] deals with T2, SMARCA4-HiBiT HeLa cells (protein which is expressed from the SMARCA4 gene) (Homo sapiens, UniProt P51532).
T2 construct: protein which is expressed from the SMARCA2 and SMARCA4 genes; host or cells: HeLa (SMARCA4-HiBiT engineered line)
The experiment is described as follows: SMARCA4 degradation assay (HiBiT-fusion HeLa cell line, 24 h, luminescence). The format is cell-based. In short, it runs like this:
as §1

Each structure is given as a SMILES string.

T1 sequence (P51531 whole entry): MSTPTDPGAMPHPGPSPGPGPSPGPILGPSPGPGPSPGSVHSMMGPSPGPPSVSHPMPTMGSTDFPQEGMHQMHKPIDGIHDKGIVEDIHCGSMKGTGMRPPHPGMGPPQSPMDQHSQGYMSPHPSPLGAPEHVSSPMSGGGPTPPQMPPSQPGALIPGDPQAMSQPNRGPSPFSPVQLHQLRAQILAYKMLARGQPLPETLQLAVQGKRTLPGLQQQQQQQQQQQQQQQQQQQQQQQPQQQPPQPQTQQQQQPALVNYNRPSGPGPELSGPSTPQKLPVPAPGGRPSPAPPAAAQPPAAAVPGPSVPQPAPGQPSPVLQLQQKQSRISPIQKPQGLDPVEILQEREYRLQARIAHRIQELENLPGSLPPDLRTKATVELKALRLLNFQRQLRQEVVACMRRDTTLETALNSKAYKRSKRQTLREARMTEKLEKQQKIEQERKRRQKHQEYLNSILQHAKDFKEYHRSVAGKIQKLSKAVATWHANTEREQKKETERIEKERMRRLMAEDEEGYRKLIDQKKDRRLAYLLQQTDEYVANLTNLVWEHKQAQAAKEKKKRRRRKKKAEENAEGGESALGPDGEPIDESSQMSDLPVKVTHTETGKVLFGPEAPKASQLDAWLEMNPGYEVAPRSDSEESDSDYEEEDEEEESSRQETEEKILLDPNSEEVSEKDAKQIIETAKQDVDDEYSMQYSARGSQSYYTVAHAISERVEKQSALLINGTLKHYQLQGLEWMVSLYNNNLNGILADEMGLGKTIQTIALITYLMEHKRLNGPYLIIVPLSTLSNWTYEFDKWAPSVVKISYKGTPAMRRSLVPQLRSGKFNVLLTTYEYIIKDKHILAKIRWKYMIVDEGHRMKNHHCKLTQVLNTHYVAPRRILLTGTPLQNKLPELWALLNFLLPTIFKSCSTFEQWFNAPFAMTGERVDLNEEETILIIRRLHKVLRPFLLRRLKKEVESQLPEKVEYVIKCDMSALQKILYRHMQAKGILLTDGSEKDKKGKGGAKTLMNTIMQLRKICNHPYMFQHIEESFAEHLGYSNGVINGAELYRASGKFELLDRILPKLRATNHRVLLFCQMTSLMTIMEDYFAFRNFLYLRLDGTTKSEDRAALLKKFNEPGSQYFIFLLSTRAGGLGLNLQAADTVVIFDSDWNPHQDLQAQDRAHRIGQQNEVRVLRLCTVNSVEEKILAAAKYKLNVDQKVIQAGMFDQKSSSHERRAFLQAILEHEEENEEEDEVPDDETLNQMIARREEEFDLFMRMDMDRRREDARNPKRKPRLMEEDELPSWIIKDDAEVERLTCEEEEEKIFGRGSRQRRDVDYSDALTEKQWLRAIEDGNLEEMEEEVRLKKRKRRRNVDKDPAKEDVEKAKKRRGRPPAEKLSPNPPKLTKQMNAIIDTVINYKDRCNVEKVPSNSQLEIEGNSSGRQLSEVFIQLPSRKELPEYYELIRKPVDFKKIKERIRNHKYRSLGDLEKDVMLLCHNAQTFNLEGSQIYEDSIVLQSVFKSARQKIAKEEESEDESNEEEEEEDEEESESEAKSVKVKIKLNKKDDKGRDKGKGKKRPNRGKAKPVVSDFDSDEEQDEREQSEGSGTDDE
T2 sequence (P51532 whole entry): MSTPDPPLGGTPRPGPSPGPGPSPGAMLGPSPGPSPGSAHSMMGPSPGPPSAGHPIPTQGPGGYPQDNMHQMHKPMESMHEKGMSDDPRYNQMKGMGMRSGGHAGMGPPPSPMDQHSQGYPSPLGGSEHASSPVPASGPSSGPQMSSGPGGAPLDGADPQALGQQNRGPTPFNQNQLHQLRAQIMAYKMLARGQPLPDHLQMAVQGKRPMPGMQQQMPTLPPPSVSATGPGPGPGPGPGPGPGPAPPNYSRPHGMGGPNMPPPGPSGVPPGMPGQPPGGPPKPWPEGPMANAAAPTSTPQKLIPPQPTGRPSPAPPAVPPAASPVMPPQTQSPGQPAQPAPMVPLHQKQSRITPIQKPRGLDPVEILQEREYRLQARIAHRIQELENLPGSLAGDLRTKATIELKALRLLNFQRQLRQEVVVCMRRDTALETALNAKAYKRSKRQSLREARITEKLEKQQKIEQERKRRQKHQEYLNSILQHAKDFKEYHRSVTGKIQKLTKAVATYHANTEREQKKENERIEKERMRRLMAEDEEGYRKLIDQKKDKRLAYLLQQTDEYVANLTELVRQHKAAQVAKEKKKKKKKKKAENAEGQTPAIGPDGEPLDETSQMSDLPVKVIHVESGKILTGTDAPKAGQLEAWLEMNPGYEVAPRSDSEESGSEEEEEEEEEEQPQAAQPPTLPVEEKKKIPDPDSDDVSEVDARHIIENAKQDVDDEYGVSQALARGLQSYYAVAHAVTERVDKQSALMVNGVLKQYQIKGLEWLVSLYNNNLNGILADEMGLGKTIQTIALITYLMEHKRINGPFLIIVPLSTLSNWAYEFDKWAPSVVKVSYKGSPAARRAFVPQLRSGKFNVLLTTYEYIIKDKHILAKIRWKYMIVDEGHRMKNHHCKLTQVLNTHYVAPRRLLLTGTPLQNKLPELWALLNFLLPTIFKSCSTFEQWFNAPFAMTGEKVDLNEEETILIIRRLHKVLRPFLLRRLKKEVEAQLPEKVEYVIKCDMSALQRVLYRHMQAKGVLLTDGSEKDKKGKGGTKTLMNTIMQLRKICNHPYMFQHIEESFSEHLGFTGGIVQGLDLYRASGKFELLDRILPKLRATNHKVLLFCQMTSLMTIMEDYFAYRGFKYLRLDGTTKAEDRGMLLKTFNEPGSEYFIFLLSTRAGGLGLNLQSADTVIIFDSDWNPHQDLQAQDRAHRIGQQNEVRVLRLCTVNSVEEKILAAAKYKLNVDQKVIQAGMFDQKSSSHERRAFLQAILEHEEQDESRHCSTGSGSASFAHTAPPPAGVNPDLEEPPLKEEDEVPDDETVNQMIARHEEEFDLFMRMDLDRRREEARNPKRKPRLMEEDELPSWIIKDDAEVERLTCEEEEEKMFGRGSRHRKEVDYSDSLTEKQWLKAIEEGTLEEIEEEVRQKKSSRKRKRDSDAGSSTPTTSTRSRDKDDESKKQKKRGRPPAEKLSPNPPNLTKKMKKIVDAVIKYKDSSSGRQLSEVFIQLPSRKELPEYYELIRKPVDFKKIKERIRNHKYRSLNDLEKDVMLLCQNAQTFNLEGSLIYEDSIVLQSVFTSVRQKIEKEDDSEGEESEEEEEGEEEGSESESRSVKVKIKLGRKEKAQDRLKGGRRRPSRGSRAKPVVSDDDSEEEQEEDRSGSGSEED

The term DC50 denotes the midpoint of the concentration-degradation curve. As to `CN(C)CC#Cc1cc(OC2CN(c3cc(-c4ccccc4O)nnc3N)C2)ccn1` [Compound P-386, 0-[6-amino-5-(3-{2-[3-(dimethylamino)-1-propynyl]-4-pyridyloxy}-1-azetidinyl)-3-pyridazinyl]phenol], the DC50 in experiment [1] and in experiment [2] was below 50 nM throughout. In experiment [1] (1 μM), the “SMARCA2 % Degradation @ 1 μM” value is “+ (+=<30%)”.

Usually inhibition stands for the drop in the measured response relative to a control, in per cent. A high value points to a response far below the control. The molecule `Nc1nnc(-c2ccccc2O)cc1N1CCC2(CCN(c3ccnc(C#CCn4ccnc4)n3)CC2)C1` [Compound P-253, o-[6-amino-5-(8-{2-[3-(1-imidazolyl)-1-propynyl]-4-pyrimidinyl}-2,8-diaza-2-spiro [4.5]decyl)-3-pyridazinyl]phenol] yielded a half-maximal degradation concentration (DC50) in experiment [1] of 50 to 500 nM. In experiment [1] (@ 1 μM), the “SMARCA2 % Degradation @ 1 μM” value was “++ (++=30-70%)”. In experiment [2], this molecule had a half-maximal degradation concentration (DC50) of 50 to 500 nM and an inhibition at 1 µM of 30 to 70%.

On to `Nc1nnc(-c2ccccc2O)cc1N1CCCN(c2ccnc(C#CCN3CC(F)(F)C3)n2)CC1` [Compound P-312, 0-[6-amino-5-(4-{2-[3-(3,3-difluoro-1-azetidinyl)-1-propynyl]-4-pyrimidinyl}-1,4-diazepan-1-yl)-3-pyridazinyl]phenol], for which, in experiment [1], the DC50 lay in the range of 50 to 500 nM. Further, the “SMARCA2 % Degradation @ 1 μM” value in experiment [1] (@ 1 μM) was “+++ (+++=>70%)”. Moreover, in experiment [2], the DC50 fell in the range of 50 to 500 nM and the inhibition at 1 µM lay within 30 to 70%.

Turning to `CC1CC(C)N1CC#Cc1nccc(N2CCN(c3cc(-c4ccccc4O)nnc3N)CC[C@H]2C)n1` (stereo partly drawn) [Compound P-249, o-{5-[(R)-4-{2-[3-(2,4-dimethyl-1-azetidinyl)-1-propynyl]-4-pyrimidinyl}-5-methyl-1,4-diazepan-1-yl]-6-amino-3-pyridaziny1} phenol], the half-maximal degradation concentration (DC50) in experiment [1] and in experiment [2] was below 50 nM in each case. Also, in experiment [1] (@ 1 μM), the “SMARCA2 % Degradation @ 1 μM” value is on record as “++ (++=30-70%)”. In experiment [2], this molecule showed an inhibition at 1 µM below 30%.

Regarding `Cc1c(C(=O)NCC#Cc2nccc(N3CCN(c4cc(-c5ccccc5O)nnc4N)CC[C@H]3C)n2)nn(C)c1C` [Compound P-239, N-[3-(4-{ (R)-4-[3-amino-6-(o-hydroxyphenyl)-4-pyridazinyl]-7-methyl-1,4-diazepan-1-y1}-2-pyrimidinyl)-2-propynyl]-1-methyl-4,5-dimethyl-3-pyrazolecarboxamide], in experiment [1], the DC50 lay in the range of 50 to 500 nM. The “SMARCA2 % Degradation @ 1 μM” value in experiment [1] (@ 1 μM) was “++ (++=30-70%)”. In experiment [2], this molecule had a DC50 of 50 to 500 nM and an inhibition at 1 µM of 30 to 70%.

With `CNC/C=C/c1nccc(N2CCN(c3cc(-c4ccccc4O)nnc3N)CC[C@H]2C)n1` [Compound P-165, o-{5-[(R)-5-methyl-4-{2-[3-(methylamino)-1-propenyl]-4-pyrimidinyl}-1,4-diazepan-1-y1]-6-amino-3-pyridaziny1}phenol], the DC50 in experiment [1] and in experiment [2] was 50 to 500 nM throughout. Further, in experiment [1] (@ 1 μM), the “SMARCA2 % Degradation @ 1 μM” value is reported as “+++ (+++=>70%)”. In experiment [2], this molecule showed an inhibition at 1 µM of 30 to 70%.

Turning to `Nc1nnc(-c2ccccc2O)cc1OC1CC2CN(c3ccnc(C#CCN4CCC4)n3)CC2C1` (stereo not drawn) [Compound P-197, o-[6-amino-5-(3-(2-[3-(1-azetidinyl)-1-propynyl]-4-pyrimidinyl}-3-azabicyclo[3.3.0]oct-7-yloxy)-3-pyridazinyl]phenol], the DC50 in experiment [1] was 50 to 500 nM. Further, the “SMARCA2 % Degradation @ 1 μM” value in experiment [1] (@ 1 μM) is listed as “++ (++=30-70%)”. In addition, in experiment [2], the DC50 lay in the range of 500 to 5000 nM and the inhibition at 1 µM is 30 to 70%.

In the case of `Cc1ncsc1C(=O)NCC#Cc1nccc(N2CCN(c3cc(-c4ccccc4O)nnc3N)CC2)n1` [Compound P-62, N-(3-(4-(4-(3-amino-6-(2-hydroxyphenyl)pyridazin-4-yl)piperazin-1-yl)pyrimidin-2-yl)prop-2-yn-1-yl)-4-methylthiazole-5-carboxamide], the DC50 in experiment [1] was 50 to 500 nM. Also, the “SMARCA2 % Degradation @ 1 μM” value in experiment [1] (@ 1 μM) is reported as “++ (++=30-70%)”. In experiment [2], this molecule displayed a 50% degradation concentration (DC50) of 50 to 500 nM and an inhibition at 1 µM of 30 to 70%.

Take `Nc1nnc(-c2ccccc2O)cc1N1CCN(c2ccnc(C#CCNC(=O)c3cc4ncccn4n3)n2)CC1` [Compound P-93, N-(3-(4-(4-(3-amino-6-(2-hydroxyphenyl)pyridazin-4-yl)piperazin-1-yl)pyrimidin-2-yl)prop-2-yn-1-yl)pyrazolo[1,5-a]pyrimidine-2-carboxamide]: the DC50 in experiment [1] is 50 to 500 nM; in experiment [2] it was below 50 nM. The “SMARCA2 % Degradation @ 1 μM” value in experiment [1] (@ 1 μM) is reported as “++ (++=30-70%)”. This molecule also gave an inhibition at 1 µM in experiment [2] of 30 to 70%.

As for `Nc1nnc(-c2ccccc2O)cc1N1CC2CCC(C1)N2c1ccnc(C#CCN2CC3CC2C3)n1` [Compound P-188, o-{6-amino-5-[8-(2-{3-(2-azabicyclo[2.1.1]hex-2-yl)-1-propynyl}-4-pyrimidinyl)-3,8-diazabicyclo[3.2.1]oct-3-yl]-3-pyridazinyl}phenol], the 50% degradation concentration (DC50) in experiment [1] was below 50 nM. Besides, in experiment [1] (@ 1 μM), the “SMARCA2 % Degradation @ 1 μM” value is given as “+++ (+++=>70%)”. Also, in experiment [2], the DC50 is below 50 nM and the inhibition at 1 µM fell in the range of 30 to 70%.

In turn, `CS(=O)(=O)N1CCC(C#Cc2nccc(N3CCCN(c4cc(-c5ccccc5O)nnc4N)CC3)n2)CC1` [Compound P-352, 0-[6-amino-5-(4-{2-[2-(1-mesyl-4-piperidyl)ethynyl]-4-pyrimidinyl}-1,4-diazepan-1-yl)-3-pyridazinyl]phenol] had a DC50 in experiment [1] of 500 to 5000 nM. Moreover, in experiment [1] (@ 1 μM), the “SMARCA2 % Degradation @ 1 μM” value is “++ (++=30-70%)”. In experiment [2], the 50% degradation concentration (DC50) was 500 to 5000 nM and the inhibition at 1 µM fell in the range of 30 to 70%.

In the case of `C[C@@H]1CCN(c2cc(-c3ccccc3O)nnc2N)CCN1c1ccnc(C#C[C@@H](C)O)n1` [Compound P-198, o-{5-[(R)-4-{2-[(R)-3-hydroxy-1-butynyl]-4-pyrimidinyl}-5-methyl-1,4-diazepan-1-yl]-6-amino-3-pyridazinyl}phenol], the DC50 in experiment [1] is 50 to 500 nM; in experiment [2], 500 to 5000 nM. Further, in experiment [1] (@ 1 μM), the “SMARCA2 % Degradation @ 1 μM” value was “+++ (+++=>70%)”. This molecule also returned an inhibition at 1 µM in experiment [2] of 30 to 70%.

`CC1CN(c2cc(-c3ccccc3O)nnc2N)CCN1c1ccnc(C#CCNC(=O)c2cc3ncccn3n2)n1` (stereo in doubt) [Compound P-81, (R)-N-(3-(4-(4-(3-amino-6-(2-hydroxyphenyl)pyridazin-4-yl)-2-methylpiperazin-1-yl)pyrimidin-2-yl)prop-2-yn-1-yl)pyrazolo[1,5-a]pyrimidine-2-carboxamide] showed a DC50 in experiment [1] of 50 to 500 nM. For the same molecule, in experiment [1] (@ 1 μM), the “SMARCA2 % Degradation @ 1 μM” value is “++ (++=30-70%)”. In experiment [2], this molecule had a DC50 below 50 nM and an inhibition at 1 µM of 30 to 70%.

`COC/C=C/c1nccc(N2CCN(c3cc(-c4ccccc4O)nnc3N)CC[C@H]2C)n1` [Compound P-170, o-(5-{(R)-4-[2-(3-methoxy-1-propenyl)-4-pyrimidinyl]-5-methyl-1,4-diazepan-1-yl}-6-amino-3-pyridazinyl)phenol]: the half-maximal degradation concentration (DC50) in experiment [1] was in the range of 50 to 500 nM. Further, the “SMARCA2 % Degradation @ 1 μM” value in experiment [1] (@ 1 μM) is reported as “++ (++=30-70%)”. In experiment [2], this molecule returned a DC50 of 500 to 5000 nM and an inhibition at 1 µM of 30 to 70%.

For `C[C@H]1CN(c2ccnc(C#CCNC(=O)c3cc4ncccn4n3)n2)CCN1c1cc(-c2ccccc2O)nnc1N` [Compound P-48, (S)-N-(3-(4-(4-(3-amino-6-(2-hydroxyphenyl)pyridazin-4-yl)-3-methylpiperazin-1-yl)pyrimidin-2-yl)prop-2-yn-1-yl)pyrazolo[1,5-a]pyrimidine-2-carboxamide], the DC50 in experiment [1] and in experiment [2] was 50 to 500 nM each time. In experiment [1] (@ 1 μM), the “SMARCA2 % Degradation @ 1 μM” value was “++ (++=30-70%)”. For the same molecule, the inhibition at 1 µM in experiment [2] was 30 to 70%.

`C[C@@H]1CCN(c2cc(-c3ccccc3O)nnc2N)CCN1c1ccc(C(F)(F)F)c(C#CCN2CCCC2)n1` [Compound P-394]: the half-maximal degradation concentration (DC50) in experiment [1] and in experiment [2] was 500 to 5000 nM throughout. Moreover, the “SMARCA2 % Degradation @ 1 μM” value in experiment [1] (1 μM) was “+ (+=<30%)”.

In experiment [1], `C[C@@H]1CCN(c2cc(-c3ccccc3O)nnc2N)CCN1c1ccnc(C#CCNC(=O)c2cccnc2)n1` [Compound P-240, N-[3-(4-{ (R)-4-[3-amino-6-(o-hydroxyphenyl)-4-pyridazinyl]-7-methyl-1,4-diazepan-1-yl}-2-pyrimidinyl)-2-propynyl]nicotinamide] came in with a DC50 of 500 to 5000 nM. In experiment [1] (@ 1 μM), the “SMARCA2 % Degradation @ 1 μM” value is “++ (++=30-70%)”. Besides, in experiment [2], the DC50 is 500 to 5000 nM and the inhibition at 1 µM was below 30%.

Molecule `COC1CN(CC#Cc2nccc(N3CCCN(c4cc(-c5ccccc5O)nnc4N)CC3)n2)C1` [Compound P-309, 0-[6-amino-5-(4-{2-[3-(3-methoxy-1-azetidinyl)-1-propynyl]-4-pyrimidinyl}-1,4-diazepan-1-yl)-3-pyridazinyl]phenol] had a DC50 in experiment [1] of 50 to 500 nM. Moreover, the “SMARCA2 % Degradation @ 1 μM” value in experiment [1] (@ 1 μM) is “++ (++=30-70%)”. In experiment [2], this molecule displayed a DC50 of 50 to 500 nM and an inhibition at 1 µM of 30 to 70%.

For the molecule `CC(=O)NCC#Cc1nccc(N2CCCN(c3cc(-c4ccccc4O)nnc3N)CC2)n1` [Compound P-122, N-(3-(4-(4-(3-amino-6-(2-hydroxyphenyl)pyridazin-4-yl)-1,4-diazepan-1-yl)pyrimidin-2-yl)prop-2-yn-1-yl)acetamide], the 50% degradation concentration (DC50) in experiment [1] fell in the range of 500 to 5000 nM. Besides, in experiment [1] (@ 1 μM), the “SMARCA2 % Degradation @ 1 μM” value is recorded as “++ (++=30-70%)”. In addition, in experiment [2], the 50% degradation concentration (DC50) is 500 to 5000 nM and the inhibition at 1 µM was below 30%.

With `Nc1nnc(-c2ccccc2O)cc1N1CCCN(c2ccnc(C#CCNC3CCOCC3)n2)CC1` [Compound P-300, 0-[6-amino-5-(4-{2-[3-(tetrahydro-2H-pyran-4-ylamino)-1-propynyl]-4-pyrimidinyl}-1,4-diazepan-1-yl)-3-pyridazinyl]phenol], the 50% degradation concentration (DC50) in experiment [1] lay in the range of 50 to 500 nM. Also, in experiment [1] (@ 1 μM), the “SMARCA2 % Degradation @ 1 μM” value is listed as “+++ (+++=>70%)”. In experiment [2], this molecule gave a DC50 of 50 to 500 nM and an inhibition at 1 µM of 30 to 70%.

The values above are taken from patent US20260265238A1, “COMPOUNDS AND PHARMACEUTICAL COMPOSITIONS THAT DEGRADE SWI/SNF-RELATED MATRIX-ASSOCIATED ACTIN-DEPENDENT REGULATOR OF CHROMATIN SUBFAMILY A” (Plexium, Inc., priority 2023, published 2026).
